The source of these data is the supplement of paper PMC10307832.

What all share (assay): relative viability (nuclei count vs DMSO), 5 days (fraction); higher = more cells survive
Compound in test [1]: CC1=C(CC(=O)O)c2cc(F)ccc2/C1=C\c1ccc([S+](C)[O-])cc1 [Sulindac] + CC(=O)Nc1cccc(-n2c(=O)n(C3CC3)c(=O)c3c(Nc4ccc(I)cc4F)n(C)c(=O)c(C)c32)c1 [Trametinib] (partner 0.02 µM)
In a few lines:
(§1)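 Five library-drug doses in √10 steps were combined with a fixed anchor-drug dose, or a single drug was given alone, by pin tool to lung cancer cell lines in 1536-well plates the day after seeding. Nuclei were stained and counted after 5 days. Relative viability is the nuclei count in treated wells over that in vehicle wells, taken as the median of duplicate plates.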

Compound in test [2]: O=c1[nH]cc(F)c(=O)[nH]1 [5-Fluorouracil] + N=C(N)NC(=N)NCCc1ccccc1 [Phenformin] (partner 250 µM)
In a few lines:
as §1

Compound in test [3]: O=c1[nH]cc(F)c(=O)[nH]1 [5-Fluorouracil] + O=C(c1cc(Cc2n[nH]c(=O)c3ccccc23)ccc1F)N1CCN(C(=O)C2CC2)CC1 [Olaparib] (partner 8 µM)
Summed up: as §1

Compound in test [4]: O=c1[nH]cc(F)c(=O)[nH]1 [5-Fluorouracil] + CC1(C)CCC(c2ccc(Cl)cc2)=C(CN2CCN(c3ccc(C(=O)NS(=O)(=O)c4ccc(N[C@H](CCN5CCOCC5)CSc5ccccc5)c(S(=O)(=O)C(F)(F)F)c4)cc3)CC2)C1 [Navitoclax] (partner 0.5 µM)
In a few lines: as §1

As to NCI-H1993, the relative viability amounted to 0.472 in test [1] (first compound 0.08 µM); 0.569 in test [1] (first compound 0.253 µM); 0.453 in test [1] (first compound 0.8 µM); 0.444 in test [1] (first compound 2.53 µM); 0.585 in test [1] (first compound 8 µM); 0.538 in test [2] (first compound 0.02 µM). Further, the relative viability in test [2] (first compound 0.2 µM) came out at 0.514; in test [2] (first compound 0.6325 µM) it was 0.494; in test [2] (first compound 2 µM), 0.459; in test [3] (first compound 0.02 µM), 1.15; in test [3] (first compound 0.2 µM), 0.743; in test [3] (first compound 0.6325 µM), 0.525. The relative viability in test [3] (first compound 2 µM) turned out to be 0.445; in test [4] (first compound 0.02 µM), 0.952; in test [4] (first compound 0.2 µM), 0.885; in test [4] (first compound 0.6325 µM), 0.752; in test [4] (first compound 2 µM), 0.669.

As for NCI-H2009, the relative viability was found to be 0.256 in test [1] (first compound 0.08 µM); 0.266 in test [1] (first compound 0.253 µM); 0.283 in test [1] (first compound 0.8 µM); 0.245 in test [1] (first compound 2.53 µM); 0.33 in test [1] (first compound 8 µM); 0.551 in test [2] (first compound 0.02 µM). Moreover, the relative viability in test [2] (first compound 0.2 µM) was determined as 0.548; in test [2] (first compound 0.6325 µM), 0.438; in test [2] (first compound 2 µM), 0.401; in test [3] (first compound 0.02 µM) it was 0.794; in test [3] (first compound 0.2 µM), 0.668; in test [3] (first compound 0.6325 µM), 0.655. Besides, the relative viability in test [3] (first compound 2 µM) amounted to 0.466; in test [4] (first compound 0.02 µM) it was 1.18; in test [4] (first compound 0.2 µM), 1.16; in test [4] (first compound 0.6325 µM) it was 1.08; in test [4] (first compound 2 µM), 0.726.

As to NCI-H2023, the relative viability in test [1] (first compound 0.08 µM) turned out to be 0.62; in test [1] (first compound 0.253 µM) it was 0.543; in test [1] (first compound 0.8 µM), 0.427; in test [1] (first compound 2.53 µM), 0.493; in test [1] (first compound 8 µM), 0.716; in test [2] (first compound 0.02 µM), 0.448. Besides, the relative viability in test [2] (first compound 0.2 µM) was found to be 0.181; in test [2] (first compound 0.6325 µM), 0.102; in test [2] (first compound 2 µM), 0.0896; in test [3] (first compound 0.02 µM), 0.517; in test [3] (first compound 0.2 µM) it was 0.196; in test [3] (first compound 0.6325 µM), 0.111. Besides, the relative viability in test [3] (first compound 2 µM) came out at 0.0832; in test [4] (first compound 0.02 µM), 1.01; in test [4] (first compound 0.2 µM) it was 0.257; in test [4] (first compound 0.6325 µM) it was 0.161; in test [4] (first compound 2 µM) it was 0.122.

For NCI-H2085, the relative viability in test [1] (first compound 0.08 µM) is 0.513; in test [1] (first compound 0.253 µM) it was 0.569; in test [1] (first compound 0.8 µM), 0.576; in test [1] (first compound 2.53 µM), 0.435; in test [1] (first compound 8 µM), 0.384; in test [2] (first compound 0.02 µM), 0.577. In addition, the relative viability in test [2] (first compound 0.2 µM) was 0.844; in test [2] (first compound 0.6325 µM) it was 0.761; in test [2] (first compound 2 µM), 0.68; in test [3] (first compound 0.02 µM) it was 0.743; in test [3] (first compound 0.2 µM), 0.784; in test [3] (first compound 0.6325 µM), 0.693. For the same cell line, the relative viability worked out at 0.677 in test [3] (first compound 2 µM); 0.972 in test [4] (first compound 0.02 µM); 1.14 in test [4] (first compound 0.2 µM); 1.08 in test [4] (first compound 0.6325 µM); 0.875 in test [4] (first compound 2 µM).

On to NCI-H2087, for which the relative viability in test [1] (first compound 0.08 µM) amounted to 0.217; in test [1] (first compound 0.253 µM), 0.205; in test [1] (first compound 0.8 µM), 0.158; in test [1] (first compound 2.53 µM), 0.207; in test [1] (first compound 8 µM), 0.224; in test [2] (first compound 0.02 µM), 0.49. In addition, the relative viability in test [2] (first compound 0.2 µM) worked out at 0.555; in test [2] (first compound 0.6325 µM) it was 0.438; in test [2] (first compound 2 µM) it was 0.333; in test [3] (first compound 0.02 µM), 0.577; in test [3] (first compound 0.2 µM) it was 0.607; in test [3] (first compound 0.6325 µM), 0.45. Also, the relative viability in test [3] (first compound 2 µM) is 0.319; in test [4] (first compound 0.02 µM), 0.928; in test [4] (first compound 0.2 µM) it was 0.917; in test [4] (first compound 0.6325 µM) it was 0.573; in test [4] (first compound 2 µM), 0.557.

As to NCI-H2126, the relative viability was 0.674 in test [1] (first compound 0.08 µM); 0.568 in test [1] (first compound 0.253 µM); 0.553 in test [1] (first compound 0.8 µM); 0.51 in test [1] (first compound 2.53 µM); 0.619 in test [1] (first compound 8 µM); 0.411 in test [2] (first compound 0.02 µM). Also, the relative viability in test [2] (first compound 0.2 µM) amounted to 0.331; in test [2] (first compound 0.6325 µM), 0.314; in test [2] (first compound 2 µM), 0.287; in test [3] (first compound 0.02 µM), 0.808; in test [3] (first compound 0.2 µM), 0.374; in test [3] (first compound 0.6325 µM) it was 0.329. Besides, the relative viability came to 0.254 in test [3] (first compound 2 µM); 0.827 in test [4] (first compound 0.02 µM); 0.367 in test [4] (first compound 0.2 µM); 0.303 in test [4] (first compound 0.6325 µM); 0.298 in test [4] (first compound 2 µM).

On to NCI-H2170, for which the relative viability in test [1] (first compound 0.08 µM) turned out to be 1.24; in test [1] (first compound 0.253 µM), 0.938; in test [1] (first compound 0.8 µM) it was 0.83; in test [1] (first compound 2.53 µM), 0.936; in test [1] (first compound 8 µM), 0.946; in test [2] (first compound 0.02 µM) it was 0.393. Moreover, the relative viability worked out at 0.42 in test [2] (first compound 0.2 µM); 0.341 in test [2] (first compound 0.6325 µM); 0.293 in test [2] (first compound 2 µM); 0.597 in test [3] (first compound 0.02 µM); 0.545 in test [3] (first compound 0.2 µM); 0.339 in test [3] (first compound 0.6325 µM). For the same cell line, the relative viability in test [3] (first compound 2 µM) turned out to be 0.289; in test [4] (first compound 0.02 µM), 0.573; in test [4] (first compound 0.2 µM) it was 0.557; in test [4] (first compound 0.6325 µM), 0.351; in test [4] (first compound 2 µM), 0.31.

Regarding NCI-H2228, the relative viability is 0.621 in test [1] (first compound 0.08 µM); 0.675 in test [1] (first compound 0.253 µM); 0.5 in test [1] (first compound 0.8 µM); 0.523 in test [1] (first compound 2.53 µM); 0.364 in test [1] (first compound 8 µM); 0.408 in test [2] (first compound 0.02 µM). For the same cell line, the relative viability in test [2] (first compound 0.2 µM) was 0.249; in test [2] (first compound 0.6325 µM), 0.259; in test [2] (first compound 2 µM), 0.249; in test [3] (first compound 0.02 µM), 0.998; in test [3] (first compound 0.2 µM), 0.671; in test [3] (first compound 0.6325 µM) it was 0.44. The relative viability came out at 0.33 in test [3] (first compound 2 µM); 0.808 in test [4] (first compound 0.02 µM); 1.06 in test [4] (first compound 0.2 µM); 0.732 in test [4] (first compound 0.6325 µM); 0.42 in test [4] (first compound 2 µM).
